pIC50: −log10 of the molar value. Like-named read-outs stand apart in the source and are kept apart here.
How the values were obtained:
[1] = biological target: T1, Avi-KRAS WT (1-169) GppNHp/RAF1 RBD-3xFLAG (52-151) (Homo sapiens, UniProt P01116); experiment: RAS-effector PPI HTRF disruption assay, Raf1-GppNHp-KRAS WT; assay type: biochemical
T1 construct: 50 nM Avi-KRAS WT (1-169) GppNHp
Experimental: (§1) A protein:protein interaction (PPI) Homogeneous Time Resolved Fluorescence (HTRF) assay was used to determine the effectiveness of compounds of the present disclosure in disrupting KRAS protein and effector (RAF1 or PIK3 CA) binding.
(§2) The HTRF assay used the following reagents and proteins: (i) 375 nM Avi-KRAS G12D/Q25A (1-169) GppNHp/3×FLAG-PI3KCA (157-299); (ii) 100 nM Avi-KRAS G12D (1-169) GppNHp/RAF1 RBD-3×FLAG (52-151); (iii) 50 nM Avi-KRAS G12V (1-169) GppNHp/RAF1 RBD-3×FLAG (52-151); (iv) 50 nM Avi-KRAS WT (1-169) GppNHp/RAF1 RBD-3×FLAG (52-151); and (v) 35 nM Avi-PI3K RBD CA-3×FLAG; Assay Buffer: 50 mM Tris pH 7.5, 100 mM NaCl, 5 mM MgCl2, 0.1% BSA, 0.01% Tween, 1 mM TCEP, 10% DMSO; Bead Buffer: 50 mM Tris pH 7.5, 0.01% Tween 20; Assay volume: 20 μL (384 well plate-low volume format); and Compound titration: 100-0.02 μM, 3× dilution series.
(§3) The HTRF assay employed the following protocol:
(§4) Compounds were dispensed in assay plate (384-well, Grenier Bione #784075) using Echo (model 555) with dose response settings: 200 nL final volume, titration from 100 μM as a 10-point dilution series. Protein mix was prepared in assay buffer, and dispensed on plates, 10 μL per well, then incubated for 1 h at room temperature, with 700 rpm shaking. Reagents mix was prepared and dispensed on plates, 10 μL per well, then incubated for 1 h at room temperature, with 700 rpm shaking.
(§5) Plates were analyzed on an Envision plate reader using the following setting: Excitation 320 nm, Bandwidth […]; Emission 615 nm, Bandwidth […], Gain 100%, Flashes 100, Lag 60 μs. Data was reported as percentage of activity, with DMSO as 100%. Data was plotted and analyzed using Prism 8. The SPR Kd, biochemical Raf1-KRAS G12D/G12V/WT-GppNHP and PI3KCA-KRAS G12D/Q25A-GppNHp disruption assay IC50 of selected compounds described herein are shown in Table 4.

[2] = biological target: T2, Avi-KRAS G12D/Q25A (1-169) GppNHp/3xFLAG-PI3KCA (157-299) (Homo sapiens, UniProt P01116, G12D/Q25A); experiment: RAS-effector PPI HTRF disruption assay, PI3KCA-GppNHp-KRAS G12D/Q25A; assay type: biochemical
T2 construct: 375 nM Avi-KRAS G12D/Q25A (1-169) GppNHp
T2 sequence (P01116 1-169 isoform P01116-2 G12D/Q25A): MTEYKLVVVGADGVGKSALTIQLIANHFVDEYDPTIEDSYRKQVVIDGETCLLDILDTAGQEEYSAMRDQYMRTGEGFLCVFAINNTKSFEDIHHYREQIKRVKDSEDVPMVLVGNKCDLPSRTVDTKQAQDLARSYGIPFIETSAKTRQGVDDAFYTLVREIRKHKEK
Experimental: as §1, §2, §3, §4, §5

[3] = tested on: pERK in GP2d cells (KRAS G12D); experiment: Cell-based pERK HTRF assay in GP2d cell; conditions: 60 min incubation
Experimental: A pERK assay (Perkin Elmer) was used to determine the effectiveness of compounds in disrupting KRAS G12D protein/effector signaling in cells.
On Day 1, cells (GP2d) were seeded into 96-well plates at 3×10^4 cells/well in 80 μL complete growth media (DMEM, 10% FBS).
On Day 2, cells were treated with compounds at 0.25% DMSO. The source plate was created with compounds diluted in media at 5-fold the final assay concentration. The compounds were run in a 9-point concentration curve starting at 1 μM, with a half-log dilution between concentrations. 20 μL was transferred onto the cell plates (final volume in wells was 100 μL). Plates were harvested after 60 min incubation by aspirating media and adding kit-supplied 1× supplemented lysis buffer to all wells (50 μL per well). Plates were then placed on a plate shaker and incubated at 850 rpm for an additional 30 min.
Antibody mixture solution is prepared by diluting aliquoted d2 and Eu Cryptate antibodies 1:20 in kit supplied detection buffer, mix the diluted antibodies solutions (1:1 v:v). 4 μL of this solution is then added to a 384-well detection plate (Perkin Elmer; 6008230).
Samples were homogenized by pipetting up and down and then transferred (16 μL of cell lysates) from the 96-well cell culture plate to two wells of the HTRF 384-well detection plate containing the antibody solution. Plates were centrifuged (524 g for 1 min) and allowed to incubate between 4 and 24 h at room temperature. Maximum signal is reached after 4 h incubation time and remains stable over a period of 24 hours. Therefore, readings can be made between 4 and 24 h of incubation. Plates were centrifuged again (524 g for Imin), then analyzed on the EnVision plate reader using the following settings: Excitation 320 nm, Bandwidth 75 nm; Emission 615 nm, Bandwidth 85 nm; Gain 100%; Flashes 100; Lag 60 μs.

[4] = biological target: T3, Avi-KRAS G12D (1-169) GppNHp/RAF1 RBD-3xFLAG (52-151) (Homo sapiens, UniProt P01116, G12D); experiment: RAS-effector PPI HTRF disruption assay, Raf1-GppNHp-KRAS G12D; assay type: biochemical
T3 construct: 100 nM Avi-KRAS G12D (1-169) GppNHp
T3 sequence (P01116 1-169 isoform P01116-2 G12D): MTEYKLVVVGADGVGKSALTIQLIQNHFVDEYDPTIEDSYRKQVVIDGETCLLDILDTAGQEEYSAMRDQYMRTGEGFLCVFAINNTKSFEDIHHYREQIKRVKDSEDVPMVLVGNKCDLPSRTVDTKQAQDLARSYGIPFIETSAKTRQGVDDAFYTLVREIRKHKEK
Experimental: as §1, §2, §3, §4, §5

[5] = biological target: T4, Avi-KRAS G12V (1-169) GppNHp/RAF1 RBD-3xFLAG (52-151) (Homo sapiens, UniProt P01116, G12V); experiment: RAS-effector PPI HTRF disruption assay, Raf1-GppNHp-KRAS G12V; assay type: biochemical
T4 construct: 50 nM Avi-KRAS G12V (1-169) GppNHp
T4 sequence (P01116 1-169 isoform P01116-2 G12V): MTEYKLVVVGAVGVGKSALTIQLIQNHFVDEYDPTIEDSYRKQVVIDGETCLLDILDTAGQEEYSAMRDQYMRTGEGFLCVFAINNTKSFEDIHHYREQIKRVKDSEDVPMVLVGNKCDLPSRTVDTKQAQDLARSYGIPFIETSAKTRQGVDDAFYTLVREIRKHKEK
Experimental: as §1, §2, §3, §4, §5

T1 sequence (P01116 1-169 isoform P01116-2): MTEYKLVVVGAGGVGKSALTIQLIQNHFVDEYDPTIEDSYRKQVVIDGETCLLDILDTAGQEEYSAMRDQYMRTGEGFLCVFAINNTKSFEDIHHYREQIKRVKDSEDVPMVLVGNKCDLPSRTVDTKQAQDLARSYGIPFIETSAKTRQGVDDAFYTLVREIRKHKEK

Structure (SMILES) | pIC50 [1] | pIC50 [2] | pIC50 ([3]; GP2d, 1 h) | pIC50 [4] | pIC50 [5] | pIC50 ([3]; read-out: pERK-Gp2D-1 hr)
C[C@@H]1NCC[C@@H]1Oc1nc(OC[C@@]23CCCN2C[C@H](F)C3)nc2c(F)c(-c3ccc(F)c4sc(N)c(C#N)c34)c(Cl)cc12 [Compound 65] | 6.00 to 7.00 | 6.00 to 7.00 | ≥ 7.00 | 6.00 to 7.00 | 6.00 to 7.00 | –
N#Cc1c(N)sc2c(F)ccc(-c3c(C(F)(F)F)cc4c(O[C@H]5CNC[C@@H]5F)nc(OC[C@@]56CCCN5C[C@H](F)C6)nc4c3F)c12 [Compound 53] | 6.00 to 7.00 | 6.00 to 7.00 | ≥ 7.00 | 6.00 to 7.00 | 5.00 to 6.00 | –
Nc1nc2c(-c3c(C(F)(F)F)cc4c(OC5CC6CC[C@H]5N6)nc(OCC56CCCN5CCC6)nc4c3F)ccc(F)c2s1 (some centres unmarked) [Compound 36] | 5.00 to 6.00 | < 5.00 | < 6.00 | 6.00 to 7.00 | < 5.00 | –
C[C@H]1NCC[C@H]1Oc1nc(OC[C@@]23CCCN2C[C@H](F)C3)nc2c(F)c(-c3ccc(F)c4scnc34)c(C(F)(F)F)cc12 [Compound 23] | < 5.00 | < 5.00 | < 6.00 | < 5.00 | < 5.00 | –
N#Cc1c(N)sc2c(F)ccc(-c3cc4nc(OC[C@@]56CCCN5C[C@H](F)C6)nc(O[C@H]5CNC[C@H]5F)c4cc3C(F)(F)F)c12 [Compound 49] | 5.00 to 6.00 | 6.00 to 7.00 | ≥ 7.00 | 6.00 to 7.00 | 5.00 to 6.00 | –
C[C@H]1NCC[C@H]1Oc1nc(OC[C@@]23CCCN2C[C@H](F)C3)nc2c(F)c(-c3ccc(F)c4sc(N)c(C#N)c34)c(C(F)(F)F)cc12 (single isomer, unassigned) [Compound 74] | < 5.00 | < 5.00 | – | < 5.00 | < 5.00 | < 6.00
Nc1nc2c(-c3c(C(F)(F)F)cc4c(O[C@H]5CNCC5(F)F)nc(OC[C@@]56CCCN5C[C@H](F)C6)nc4c3F)ccc(F)c2s1 (atropisomer, axis not shown) [Compound 29] | < 5.00 | < 5.00 | – | < 5.00 | < 5.00 | < 6.00
C[C@H]1NCC[C@H]1Oc1nc(OC[C@@]23CCCN2C[C@H](F)C3)nc2c(F)c(-c3ccc(F)c4sc(N)c(C#N)c34)ncc12 [Compound 98, 2-amino-7-fluoro-4-(8-fluoro-2-(((2R,7aS)-2-fluorotetrahydro-1H-pyrrolizin-7a(5H)-yl)methoxy)-4-(((2R,3R)-2-methylpyrrolidin-3-yl)oxy)pyrido[4,3-d]pyrimidin-7-yl)benzo[b]thiophene-3-carbonitrile] | 5.00 to 6.00 | < 5.00 | 6.00 to 7.00 | 5.00 to 6.00 | 5.00 to 6.00 | –
N#Cc1c(N)sc2c(F)ccc(-c3ccc4c(O[C@@H]5CCNC5)nc(OC[C@@]56CCCN5C[C@H](F)C6)nc4c3F)c12 [Compound 48] | 5.00 to 6.00 | 6.00 to 7.00 | 6.00 to 7.00 | 6.00 to 7.00 | < 5.00 | –
C[C@@H]1CNCC1Oc1nc(OC[C@@]23CCCN2C[C@H](F)C3)nc2c(F)c(-c3ccc(F)c4scnc34)c(C(F)(F)F)cc12 (some centres unmarked) [Compound 14] | < 5.00 | < 5.00 | < 6.00 | < 5.00 | < 5.00 | –
Nc1nc2c(-c3c(C(F)(F)F)cc4c(O[C@@H]5CCNC5)nc(OC[C@@]56CCCN5C[C@H](F)C6)nc4c3Cl)ccc(F)c2s1 (atropisomer, axis not shown) [Compound 10] | 5.00 to 6.00 | 6.00 to 7.00 | – | 6.00 to 7.00 | 5.00 to 6.00 | 6.00 to 7.00
Nc1nc2c(-c3cc4nc(OC[C@@]56CCCN5C[C@H](F)C6)nc(O[C@H]5CNC[C@@H]5F)c4cc3C(F)(F)F)ccc(F)c2s1 [Compound 30] | < 5.00 | < 5.00 | < 6.00 | 5.00 to 6.00 | < 5.00 | –
N#Cc1c(N)sc2c(F)ccc(-c3c(F)cc4c(O[C@@H]5CCNC5)nc(OC[C@@]56CCCN5C[C@H](F)C6)nc4c3F)c12 [Compound 77] | < 5.00 | < 5.00 | < 6.00 | < 5.00 | < 5.00 | –

From patent US20250084079A1, “COMPOSITIONS AND METHODS FOR INHIBITION OF RAS” (TheRas, Inc., priority 2022, published 2025)
